Here are results for four molecules from patent US10376585B2, “Injectable antibiotic formulations and their methods of use” (BAYER NEW ZEALAND LTD, priority 2012, dated 2019).

For data set [1] the following is noted: at 20° C.; cited from earlier work.
The format of data set [2] is physicochemical. The source says:
Thus the long term stability of PNT with triacetin (or other oily vehicles) is highly unexpected.
After one month in accelerated stability the components of the composition appeared to degrade rapidly with a resulting colour change from an off-white to a dark yellow with dark brown sludge forming. The degradation components appeared to include a gas, resulting in the container swelling from the resultant pressure. Accordingly, the formulations described in CN 1517090 are not known to be storage stable.

For data set [3] the following is noted: intramuscular administration; Friton 2003; cited from earlier work.
For data set [4] the following is noted: blood pH (7.2); cited from earlier work.

As for `CC(=O)OCC(COC(C)=O)OC(C)=O` [Triacetin], the viscosity entry in data set [1] was “approximately 23 mPas”.
For the molecule `CC1(C)S[C@@H]2[C@H](NC(=O)Cc3ccccc3)C(=O)N2[C@H]1C(=O)O` [benzylpenicillin], in data set [2], the “chemical stability on storage” value was “chemically unstable on storage”.
For `CCN(CC)CCOC(=O)[C@@H]1N2C(=O)[C@@H](NC(=O)Cc3ccccc3)[C@H]2SC1(C)C.I` [penethamate hydroiodide], in data set [3], the “time to peak serum levels (measured as dissociated penicillin G) after injection” value is 3.76 h. Besides, in data set [4], the “active drug present in its hydrolysed form (benzylpenicillin) at equilibrium” value is 91.8%.
`CC1(C)S[C@@H]2[C@H](NC(=O)Cc3ccccc3)C(=O)N2[C@H]1C(=O)O.CCN(CC)CCOC(=O)c1ccc(N)cc1` [procaine penicillin]: in data set [2], the “chemical stability of composition” value was “chemically unstable” and the “chemical stability on storage” value is recorded as “chemically unstable on storage”.
